pKd: −log10 of the molar value.

For the experiment, the target named is Can f 1 (Canis lupus, UniProt O18873). The experiment in a line: fluorescence titration (excitation […] nm, emission […] nm). It is filed as binding.
Can f 1, sequence (O18873 19-174): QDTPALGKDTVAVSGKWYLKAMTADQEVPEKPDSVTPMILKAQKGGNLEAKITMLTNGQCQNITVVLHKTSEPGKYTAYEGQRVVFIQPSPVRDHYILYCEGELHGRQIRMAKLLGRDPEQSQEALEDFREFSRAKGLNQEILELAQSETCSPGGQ

The term pKd denotes −log10 of the Kd, conventionally taken in molar units. Higher therefore signals a low Kd. As for `O=S(=O)(O)c1cccc2cccc(Nc3ccccc3)c12` [ANS, 8-anilinonaphthalene-1-sulfonic acid], the pKd is 5.68.

Source of the values: PMC10883907, “Phage-display reveals interaction of lipocalin allergen Can f 1 with a peptide resembling the antigen binding region of a human γδT-cell receptor” (Biological Chemistry, 2020).
